What was measured:
healthy adults = assay: Phase 1 trials, waking EEG; assay type: in vivo, human
normal volunteers = assay: Afternoon nap model of insomnia in normal volunteers; assay type: in vivo, human
diabetic rats = conditions: 19.8% deficit in diabetic rats; cited from earlier work
[1] = system: DOI-induced hypolocomotion in rats; assay: Attenuation of DOI-induced hypolocomotion in rats; assay type: in vivo, rat; conditions: compound 1-10 mg/kg p.o., DOI 1 mg/kg s.c.
Description: In this example, compounds of the invention were tested for inverse agonist activity by determining whether these compounds could attenuate DOI-induced hypolocomotion in rats in a novel environment. DOI is a potent 5-HT2A/2C receptor agonist that crosses the blood-brain barrier. The standard protocol used is described briefly below.
Male Sprague-Dawley rats weighing between 200-350 g were used for all tests. Rats were housed three to four per cage.
(R)-DOI HCl (C11H16INO2.HCl) was obtained from Sigma-Aldrich and was dissolved in 0.9% saline. Compounds of the invention were synthesized at Arena Pharmaceuticals Inc., San Diego, Calif. and were dissolved in 100% PEG400. DOI was injected s.c. in a volume of 1 mL/kg, while compounds of the invention were administered p.o. in a volume of 1 mL/kg.
The “Motor Monitor” (Hamilton-Kinder, Poway, Calif.) was used for all activity measurement. This apparatus recorded rears using infrared photobeams. […]
In determining the effects of compounds of the invention on DOI-induced hypoactivity, animals were first injected with vehicle or the compound of the invention (1-10 mg/kg) in their home cages. […] Ten minutes after DOI administration, animals were placed into the activity apparatus and rearing activity was measured for 10 min.
Results (total rears over 10 min) were analyzed by t-test. […]

heatstroke = conditions: during heatstroke; cited from earlier work
JC virus = conditions: human glial cells; cited from earlier work
[2] = system: inflammatory pain in rats; conditions: intrathecal or intraperitoneal administration; cited from earlier work
humans = conditions: lumbar disc herniation; cited from earlier work
[3] = system: diabetic nephropathy patients; conditions: 24 months of treatment; cited from earlier work
[4] = system: thermal induced pain in rats; conditions: intraperitoneal administration; cited from earlier work

With `COc1ccc(NC(=O)Nc2ccc(F)cc2F)cc1-c1c(Br)cnn1C` [APD125] the “effect on waking EEG” value (healthy adults) was “vigilance-lowering effects”, the “dose of maximal vigilance-lowering effects” value (healthy adults; waking EEG) was 40 to 80 mg and the “time of peak effects after dosing” value (healthy adults; waking EEG) was 2 to 4 h. The “microarousals, number of sleep stage shifts and number of awakenings after sleep onset” value (normal volunteers; human, in vivo) was “decreased”, the sleep onset latency (normal volunteers; human, in vivo) was “not decreased” and the “slow wave sleep and associated parameters” value (normal volunteers; primarily during the early part of sleep) was “increased slow wave sleep and associated parameters in a dose-dependent manner”.

In the case of `O=CN1CCC(C(=O)NCCN2CCC(=C3c4ccccc4C=Cc4ccccc43)CC2)CC1` [AT-1015], the “correction of sciatic motor conduction deficit” value (shortened to “correction”) (diabetic rats) is listed as 82.6-99.7%.

For `O=C(c1cccn2ccnc12)N1CCN(CCc2ccccc2F)CC1` [Compound 18, (4-(2-Fluorophenethyl)piperazin-1-yl)(imidazo[1,2-a]pyridin-8-yl)methanone], the “attenuation of DOI-induced hypolocomotion (total rears over 10 min)” value [1] was “attenuated DOI-induced hypolocomotion”.

In the case of `O=C(c1cccn2ccnc12)N1CCN(CCc2ccc(Cl)cc2Cl)CC1` [Compound 19, (4-(2,4-Dichlorophenethyl)piperazin-1-yl)(imidazo[1,2-a]pyridin-8-yl)methanone], the “attenuation of DOI-induced hypolocomotion (total rears over 10 min)” value [1] is reported as “attenuated DOI-induced hypolocomotion”.

In the case of `O=C(c1ccc(F)cc1)C1CCN(CCn2c(=O)[nH]c3ccccc3c2=O)CC1` [ketanserin], the “protection against circulatory shocks, intracranial hypertension and cerebral ischemia” value (heatstroke) is given as “protect against circulatory shocks, intracranial hypertension and cerebral ischemia” and the JC virus infection (JC virus) is given as “inhibited”.

For `Cc1nc2sccn2c(=O)c1CCN1CCC(=C(c2ccc(F)cc2)c2ccc(F)cc2)CC1` [ritanserin], the “correction” value (diabetic rats) is listed as 82.6-99.7% and the JC virus infection (JC virus) is listed as “inhibited”.

For `COc1cccc(CCc2ccccc2OCC(CN(C)C)OC(=O)CCC(=O)O)c1` (stereo not drawn) [sarpogrelate], the “analgesic effect on inflammatory pain” value [2] is listed as “significant analgesic effect”, the “treatment of lower back pain, leg pain and numbness associated with sciatica” value (humans) is listed as “effective treatment” and the “urinary albumin excretion level” value [3] is listed as “significantly reduced”. For the same molecule, the “correction” value (diabetic rats) was 82.6-99.7% and the “analgesic effect on thermal induced pain” value [4] was “significant analgesic effect”.
